Test results taken from ChEMBL document CHEMBL1125568, “ATP-citrate lyase as a target for hypolipidemic intervention. Sulfoximine and 3-hydroxy-beta-lactam containing analogues of citric acid as potential tight-binding inhibitors” (J Med Chem, 1992).

T1: ATP-citrate synthase (Rattus norvegicus, UniProt P16638)
T1 sequence (P16638 whole entry): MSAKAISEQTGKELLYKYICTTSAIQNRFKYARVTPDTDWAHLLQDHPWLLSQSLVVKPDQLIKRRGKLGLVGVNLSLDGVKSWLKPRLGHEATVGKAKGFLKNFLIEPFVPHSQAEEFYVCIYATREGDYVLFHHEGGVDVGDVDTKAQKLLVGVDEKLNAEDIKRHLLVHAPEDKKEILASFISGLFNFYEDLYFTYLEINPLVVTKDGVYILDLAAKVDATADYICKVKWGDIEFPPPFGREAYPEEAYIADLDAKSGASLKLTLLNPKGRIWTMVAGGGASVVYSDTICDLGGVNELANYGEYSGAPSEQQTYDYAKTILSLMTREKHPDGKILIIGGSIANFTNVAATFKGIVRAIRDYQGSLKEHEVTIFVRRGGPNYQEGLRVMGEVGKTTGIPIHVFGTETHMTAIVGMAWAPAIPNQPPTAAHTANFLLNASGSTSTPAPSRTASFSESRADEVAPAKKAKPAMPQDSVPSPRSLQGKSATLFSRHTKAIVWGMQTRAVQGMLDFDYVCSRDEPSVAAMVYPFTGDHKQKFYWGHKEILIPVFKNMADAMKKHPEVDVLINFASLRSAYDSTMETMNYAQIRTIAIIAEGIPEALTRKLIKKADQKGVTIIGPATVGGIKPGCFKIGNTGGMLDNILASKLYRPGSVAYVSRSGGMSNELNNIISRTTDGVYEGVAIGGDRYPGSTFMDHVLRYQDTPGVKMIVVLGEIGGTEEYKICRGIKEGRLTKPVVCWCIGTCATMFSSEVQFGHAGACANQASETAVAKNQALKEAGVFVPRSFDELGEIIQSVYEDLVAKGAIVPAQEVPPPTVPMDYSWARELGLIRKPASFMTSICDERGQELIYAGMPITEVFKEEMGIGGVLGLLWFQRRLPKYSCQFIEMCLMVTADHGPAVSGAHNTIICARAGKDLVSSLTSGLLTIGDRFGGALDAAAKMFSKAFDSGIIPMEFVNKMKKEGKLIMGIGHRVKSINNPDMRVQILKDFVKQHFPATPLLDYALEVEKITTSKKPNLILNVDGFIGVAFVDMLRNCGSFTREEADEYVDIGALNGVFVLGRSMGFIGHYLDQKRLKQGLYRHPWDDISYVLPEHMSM

T2: ATP-citrate synthase (Rattus norvegicus) (UniProt P16638)
T2 sequence (whole entry): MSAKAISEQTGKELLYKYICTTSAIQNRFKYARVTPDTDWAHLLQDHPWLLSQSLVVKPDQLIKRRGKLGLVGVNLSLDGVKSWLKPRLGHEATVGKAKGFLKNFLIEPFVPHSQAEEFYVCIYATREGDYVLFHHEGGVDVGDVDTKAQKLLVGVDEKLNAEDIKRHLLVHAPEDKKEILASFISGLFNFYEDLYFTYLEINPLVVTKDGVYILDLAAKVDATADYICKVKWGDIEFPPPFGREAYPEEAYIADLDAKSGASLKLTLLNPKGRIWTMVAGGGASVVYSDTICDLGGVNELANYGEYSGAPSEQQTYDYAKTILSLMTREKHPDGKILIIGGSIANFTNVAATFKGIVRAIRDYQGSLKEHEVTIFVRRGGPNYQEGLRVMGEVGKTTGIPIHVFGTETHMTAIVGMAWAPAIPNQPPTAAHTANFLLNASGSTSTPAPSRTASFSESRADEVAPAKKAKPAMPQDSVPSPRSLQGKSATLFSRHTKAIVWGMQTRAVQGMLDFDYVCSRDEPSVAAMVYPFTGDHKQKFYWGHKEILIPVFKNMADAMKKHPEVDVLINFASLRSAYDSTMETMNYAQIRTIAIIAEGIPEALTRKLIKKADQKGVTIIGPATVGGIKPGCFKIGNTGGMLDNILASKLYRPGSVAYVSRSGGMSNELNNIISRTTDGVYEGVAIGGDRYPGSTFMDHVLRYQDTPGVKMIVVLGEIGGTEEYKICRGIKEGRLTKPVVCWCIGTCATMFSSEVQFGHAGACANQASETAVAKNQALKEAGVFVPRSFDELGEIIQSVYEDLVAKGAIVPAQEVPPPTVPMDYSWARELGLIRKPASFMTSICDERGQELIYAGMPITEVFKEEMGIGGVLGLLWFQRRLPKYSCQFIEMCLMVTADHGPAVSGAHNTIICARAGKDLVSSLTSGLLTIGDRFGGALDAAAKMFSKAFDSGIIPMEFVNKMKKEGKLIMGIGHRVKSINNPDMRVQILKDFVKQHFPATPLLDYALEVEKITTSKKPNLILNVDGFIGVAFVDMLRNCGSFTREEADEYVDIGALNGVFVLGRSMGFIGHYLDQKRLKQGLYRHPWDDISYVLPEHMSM

B1: ATP-citrate synthase (Rattus norvegicus), P16638 (protein)
chain: MSAKAISEQTGKELLYKYICTTSAIQNRFKYARVTPDTDWAHLLQDHPWLLSQSLVVKPDQLIKRRGKLGLVGVNLSLDGVKSWLKPRLGHEATVGKAKGFLKNFLIEPFVPHSQAEEFYVCIYATREGDYVLFHHEGGVDVGDVDTKAQKLLVGVDEKLNAEDIKRHLLVHAPEDKKEILASFISGLFNFYEDLYFTYLEINPLVVTKDGVYILDLAAKVDATADYICKVKWGDIEFPPPFGREAYPEEAYIADLDAKSGASLKLTLLNPKGRIWTMVAGGGASVVYSDTICDLGGVNELANYGEYSGAPSEQQTYDYAKTILSLMTREKHPDGKILIIGGSIANFTNVAATFKGIVRAIRDYQGSLKEHEVTIFVRRGGPNYQEGLRVMGEVGKTTGIPIHVFGTETHMTAIVGMAWAPAIPNQPPTAAHTANFLLNASGSTSTPAPSRTASFSESRADEVAPAKKAKPAMPQDSVPSPRSLQGKSATLFSRHTKAIVWGMQTRAVQGMLDFDYVCSRDEPSVAAMVYPFTGDHKQKFYWGHKEILIPVFKNMADAMKKHPEVDVLINFASLRSAYDSTMETMNYAQIRTIAIIAEGIPEALTRKLIKKADQKGVTIIGPATVGGIKPGCFKIGNTGGMLDNILASKLYRPGSVAYVSRSGGMSNELNNIISRTTDGVYEGVAIGGDRYPGSTFMDHVLRYQDTPGVKMIVVLGEIGGTEEYKICRGIKEGRLTKPVVCWCIGTCATMFSSEVQFGHAGACANQASETAVAKNQALKEAGVFVPRSFDELGEIIQSVYEDLVAKGAIVPAQEVPPPTVPMDYSWARELGLIRKPASFMTSICDERGQELIYAGMPITEVFKEEMGIGGVLGLLWFQRRLPKYSCQFIEMCLMVTADHGPAVSGAHNTIICARAGKDLVSSLTSGLLTIGDRFGGALDAAAKMFSKAFDSGIIPMEFVNKMKKEGKLIMGIGHRVKSINNPDMRVQILKDFVKQHFPATPLLDYALEVEKITTSKKPNLILNVDGFIGVAFVDMLRNCGSFTREEADEYVDIGALNGVFVLGRSMGFIGHYLDQKRLKQGLYRHPWDDISYVLPEHMSM

Experiments:
[1] = molecular target: T1, ATP-citrate synthase; assay: Reversible binding Ki was measured by the inhibition of the carbon-carbon bond cleavage activity against rat ATP-Citrate Lyase
[2] = molecular target: T2, ATP-citrate synthase (Rattus norvegicus); assay: Inhibitory activity against rat ATP-Citrate lyase measured in terms of Vmax.
[3] = compound: C[S+](=N)([O-])C[C@@](O)(CC(=O)O)C(=O)O; assay: Inhibitory activity against rat ATP-Citrate lyase measured in terms of Km.
[4] = substrate: O=C(O)CC(O)(CC(=O)O)C(=O)O

| Molecule | Ki [1] [mM] | also measured |
| --- | --- | --- |
| O=C(O)C[C@H](C[C@]1(O)CNC1=O)C(=O)O | > 9 |  |
| O=C(O)C[C@H](C[C@@]1(O)CNC1=O)C(=O)O | > 20 |  |
| C[S+](=N)([O-])C[C@@](O)(CC(=O)O)C(=O)O (stereo in doubt; 12a) [listing 1 of 2 here] | 0.25 |  |
| C[S+](=N)([O-])C[C@@](O)(CC(=O)O)C(=O)O (stereo in doubt; 12a) [listing 2 of 2 here] |  | Relative Vmax [2]: 0.25 |
| C[S+](=N)([O-])C[C@@](O)(CC(=O)O)C(=O)O (stereo in doubt; 12b) [listing 1 of 2 here] | > 10 |  |
| C[S+](=N)([O-])C[C@@](O)(CC(=O)O)C(=O)O (stereo in doubt; 12b) [listing 2 of 2 here] |  | Relative Vmax [2]: < 0.003 |
| B1 |  | Km [3]: 1300 µM; Km [4]: 110 µM |
